Data set [1] concerns BxPC-3 human PDAC xenograft. In words: Antitumor activity in BxPC-3 PDAC xenograft model. The class given is in vivo, nude mice. The method, then:
(§1) Dosing for the animal studies described below were selected as follows. In some current human clinical trials, TH-302 is given on once-a-week schedules (QW) of three weeks on, one week off (at a dose of 240 or 340 mg/m^2). […] In xenograft models, gemcitabine is administered at 60 or 80 mg/kg in four three-day cycles (Q3D×4) (Teicher et al., Cancer Res. 6:1016, 2000; Marriman et at., invest New Drugs. 14:243, 1996). […] The therapy was administered every three days for five cycles (Q3D×5).
(§2) The animal studies were conducted using, xenograft models for pancreatic ductal adenocarcinoma (PDAC). Tumors were generated in the flanks of nude mice by subcutaneous injection of established human PDAC cell lines. Four PDAC xenograft models were established by subcutaneous implantation of either Hs766t, MIA PaCa-2, PANC-1 or BxPC-3 cells into the flank of nude mice. Mice were implanted subcutaneously in the right flank with 5×10^6 cells in 30% Matrilgel™ at a dose volume of 200 μL. Mice bearing similar tumor size were randomly assigned into different groups when tumor size reached 150 mm^3. […] Antitumor activity of the G+nP+T triplet combination therapy was assessed, and compared with the G+nP doublet combination therapy.
(§3) Tumor growth delay 1000 mm^3 (TGD1000) was determined as the difference in time required for the mean tumor size to reach 1000 mm^3 between treated group and vehicle control group. TGD1000 of T monotherapy and G+nP doublet combination therapy groups was 47 and 35 days, respectively, while TGD1000 of G+nP+T triplet combination therapy group was 53 days. […] (see Table 1, below).
(§4) In three of the four models, the triplet combination therapy increased the complete response rate (CR) relative to the G+nP combination therapy or the T monotherapy. CR was defined as disappearance of tumor or tumor size is <100 mm^3 at a study point. Of note, the CR rate of the G+nP+T combination therapy in the PANC-1 model reached 100%, compared to 0% and 60% in the T monotherapy and G+nP combination therapy groups, respectively. In the MIA PaCa-2 model, CR rate in the triplet group was 90%, compared to 0 and 10% in the T monotherapy and G+nP doublet combination therapy groups, respectively.

Data set [2] in a line: von Frey neuropathy assay (mechanical hyperalgesia). To be noted: male CD-1 mice; compared to V, from 9 days after initiation of treatment. The format is in vivo. How it is done:
To determine the effect of combination therapy on the nervous system, male CD-1 mice were randomly divided into 4 groups with 10 mice each. Mechanical hyperalgesia tests were performed prior to the initial treatment and during the study by a trained observer who was unaware of the animal group identities. […] This hyperalgesia persisted to 37 days with peaks at day 16 and day 23 (p<0.001, two-way ANOVA), and gradually returned to baseline at day 43. […] There was no difference between G+nP+T combination therapy treated and G+nP combination therapy treated animals.

The nature of data set [3]: Hematological testing (Hemavet 950 blood analyzer). The class given is in vivo, PANC-1 tumor bearing nude mice and CD-1 mice. The settings on record: 24 hrs after last treatment; T and G+nP vs V, triplet vs G+nP. How it is done:
To determine the effect of combination therapy on hematopoiesis, the same treatment was employed in PANC-1 tumor bearing nude mice as well as immunocompetent CD-1 mice. Twenty-four hrs. after the last treatment, the animals were euthanized under CO2, blood was collected via heart puncture, and hematological analysis was performed using a Hemavet 950™ blood analyzer. As shown in FIG. 2 (mean±SEM), G+nP combination therapy or T monotherapy reduced neutrophils, lymphocytes, and monocytes, and complete white blood cell count (WBC), compared with V(*p<0.05 compared with V).

A short description of data set [4]: Treatment-induced body weight loss in PDAC tumor bearing and CD-1 non-tumor bearing mice. The class given is in vivo. How it is done:
Another series of studies were conducted to investigate the treatment-induced body weight (BW) loss in both PDAC tumor bearing animals and CD-1 immunocompetent mice. Body weight was measured daily or twice a week.

The subject of data set [5] is pancreatic ductal adenocarcinoma (PDAC). The settings on record: TH-302 added to gemcitabine (GEM) versus GEM only; cited from earlier work.
Data set [6] deals with Hs766t human PDAC xenograft. In words: Antitumor activity in Hs766t PDAC xenograft model. The class given is in vivo, nude mice. To be noted: for MT (Median Time to reaching the size of 1000 mm^3): Kaplan-Meier; for TGI (Tumor Growth Inhibition): T 50 mg/kg i.p., nP 30 mg/kg i.v., G 60 mg/kg i.p. How it is done: as §1, §2, §3, §4
The subject of data set [7] is PANC-1 xenograft tumors. The data set is described as follows: Pharmacodynamic biomarkers by histology, immunohistochemistry or in situ assay in PANC-1 tumors. The format is in vivo, nude mice. The method, then:
We used a panel of biomakers to characterize Hs766t, MIA PaCa-2, PANC-1 and BxPC3 xenograft tumors. […] We chose a moderate hypoxic level tumor model, PANC-1, to investigate the pharmacodynamic changes caused by the different treatments, PANC-1 tumor-bearing animals were treated with vehicle, TH-302, G+nP, and G+nP+T when tumor size was approximately 500 mm^3. One day after the last treatment, tumors were harvested, fixed, paraffin-embedded, and sectioned for staining with a panel of histology and immunohistochemistry markers.
Similar to as observed for apoptosis, γH2AX-positive cells were increased in all three drug treated groups compared with V. 31±1.3 positive cells/field in the G+nP+T triplet group, compared with 19 in T alone or G+nP and less than 4 in V (p<0.05). Cells with DNA damage were evenly distributed in both the hypoxic and oxic compartments in non-necrotic regions. Ki67 is a marker of cell proliferation, labeling all active phases of the cell cycle including S, G2, and mitosis.
To determine the effect of combination therapy on tumor microenvironment, tumor stroma and hypoxia were investigated. Tumor stroma is composed of extracellular matrix protein and cellular elements. Thus, collagen I and III, as main parts of extracellular matrix were evaluated by Picrosirius red staining. Activated fibroblasts in the stroma were analyzed by α-SMA. […] There was no co-localization between exogenous pimonidazole- and endogenous CAIX-positive cells, CA-IX was found in the necrotic cells as well.

Data set [8] has as its system cell lines with mutations in BRCA1 or BRCA2. In words: Sensitivity of BRCA1 or BRCA2 mutated cell lines to TH-302. The format is cell-based. From the text: A human clinical trial can include analysis of any of a series of biomarkers. […] The prevalence of BRCA1 and BRCA2 mutations in pancreatic cancer patients is between 5% and 19%, Thus, a trial can include collection of serum, plasma, and tissue samples for analysis of any markers useful for identifying suitable patient populations and/or liar monitoring the course of therapy.

The test system of data set [9] is MIA PaCa-2 human PDAC xenograft. In words: Antitumor activity in MIA PaCa-2 PDAC xenograft model. The format is in vivo, nude mice. How it is done: as §1, §2, §3, §4
A short description of data set [10]: Clinical injection site and administration reactions of TH-302. The class given is in vivo, human. From the text: Care in the administration of TH 302 will reduce the chance of perivenous infiltration. If any signs or symptoms of extravasation occur, the administration of TH 302 should be immediately terminated and restarted in another vein. TH 302 should always be administered via a freely flowing i.v. line, preferably, where feasible, through a central venous catheter. Administration through small veins, particularly on the hands and feet is discouraged. Because of the progressive nature of extravasation reactions, close observation and plastic surgery consultation is recommended.
TH 302 administration reactions have been observed. […] It is recommended that a steroid such as dexamethasone (or equivalent) be included in the antiemetic regimen prior to administration. Symptoms and signs of hypersensitivity include fever, myalgia, headache, rash, pruritus, urticaria, angioedema, chest discomfort, dyspnea, coughing, cyanosis, and hypotension. If the nature and the severity of the reaction require termination of treatment, it should be determined if the reaction may or may not be an immunoglobulin E mediated process. […] If the event is clearly anaphylaxis, then epinephrine ( 1/1000, 0.3 to 0.5 mL given subcutaneously or equivalent) should be considered as well as standard treatment approaches. […] Reactions to the administration of TH 302 should be assessed and treated in a similar manner. […]

For data set [11], the system named is PANC-1 human PDAC xenograft. In words: Antitumor activity in PANC-1 PDAC xenograft model. The class given is in vivo, nude mice. The method, then:
as §1, §2, §3, §4

In data set [12] the test system is pancreatic cancer. To be noted: Phase 3 trial, pancreatic cancer patients; cited from earlier work.
Where [13] appears, read: MIA PaCa-2, TV 1000 mm^3 as endpoint.
The mark [14] stands for this setting: PANC-1, TV 1000 mm^3 as endpoint.

Marks after values point to notes of the source that are not given here.

Consider `Cn1c(COP(=O)(NCCBr)NCCBr)cnc1[N+](=O)[O-]` [TH-302, (2-bromoethyl)({[(2-bromoethyl)amino][(2-nitro-3-methylimidazol-4-yl)methoxy]phosphoryl})amine], for which the “CR (Complete Response) of 10” value in data set [1], in data set [6] (tumor gone or <100 mm^3), in data set [9] (MIA PaCa-2) and in data set [11] (PANC-1) was 0 of 10 in each case. For the same compound, the “TGD1000 (vs. vehicle)” value came to 11 days in [1] (Q3D×5); 47 days in data set [6] (Q3D×5, delay of mean tumor size to 1000 mm^3); 6 days in data set [9] (MIA PaCa-2, Q3D×5); 7 days in data set [11] (PANC-1, Q3D×5). Also, the “TGI (Tumor Growth Inhibition)” value turned out to be 43% in [1] (T 50 mg/kg i.p., nP 30 mg/kg i.v., G 60 mg/kg i.p., Q3D×5); 82.1%* in [6] (Q3D×5); 82.1% in data set [6] (Q3D×5, listed as T); 27% in data set [9] (MIA PaCa-2, T 50 mg/kg i.p., nP 30 mg/kg i.v., G 60 mg/kg i.p., Q3D×5); 44.5% in data set [11] (PANC-1, T 50 mg/kg i.p., nP 30 mg/kg i.v., G 60 mg/kg i.p., Q3D×5). The “ILS (Increased Life Span)” value in data set [1] (TV 1000 mm^3 as endpoint) was 52%; in data set [6] (TV 1000 mm^3 as endpoint), 297%; in [9] (setting [13]) it was 26%; in data set [11] (setting [14]), 48%. Further, the “MT (Median Time to reaching the size of 1000 mm^3)” value in [1] (TV 1000 mm^3 as endpoint) was 24 days; in [6] (TV 1000 mm^3 as endpoint) it was 59.5*^,a day; in data set [6] (TV 1000 mm^3 as endpoint, listed as T), 59.5 days; in data set [9] (setting [13]), 34 days; in data set [11] (setting [14]), 31 days. Further, in [2], the hind-paw mechanical hyperalgesia entry was “no mechanical hyperalgesia”. Moreover, the “neutrophils, lymphocytes, monocytes and complete white blood cell count (WBC)” value in [3] is listed as “reduced”. For the same compound, the “maximal body weight loss” value in [4] (BxPC3, Nude ♀ (n = 10)) stood at 0%; in data set [4] (Hs766t, Nude ♀ (n = 10)), 0%; in data set [4] (MIA PaCa-2, Nude ♀ (n = 10)) it was 0%; in [4] (Non-tumor CD-1 ♀ (n = 6)) it was 0%; in data set [4] (Non-tumor CD-1 ♂ (n = 10)), 0%; in data set [4] (PANC-1 #1, Nude ♀ (n = 10)) it was 0%. In addition, the “maximal body weight loss” value in data set [4] (PANC-1 #2, Nude ♀ (n = 5)) was 0%; in data set [4] (PANC-1 #3, Nude ♀ (n = 10)), 0%. The “maximal BW loss (percentage of mean maximal BW loss compared with pretreatment)” value in data set [4] (across the 8 studies, G+nP range in 7 of 8 studies) worked out at 0%. The progression-free survival result in data set [5] is recorded as “significant increase”. The “γH2AX-positive cells (DNA damage)” value in data set [7] (V less than 4) was 19 positive cells/field. The “extracellular collagen (Picrosirius red staining)” value in data set [7] (morphometric analysis) is recorded as “no effect”. Also, the “α-SMA expression (activated fibroblasts in stroma)” value in data set [7] (morphometric analysis) was “no effect”. Also, in [7] (non-necrotic regions, V 0.8±0.1), the “number of apoptotic cells (TUNEL assay)” value is on record as 3±0.2 per field. Besides, the “tumor necrotic fraction (Masson's Trichrome histology staining)” value in data set [7] (one day after last treatment, V 9%) is 35%. Moreover, the “hypoxic fraction (HF)” value in data set [7] (pimonidazole, V 12.4+2%) was found to be 10.6±1.1%. In addition, the “sensitivity to TH-302” value in data set [8] is “Enhanced sensitivity”. Also, the CR rate in data set [9] (MIA PaCa-2 model) and in data set [11] (PANC-1 model) was 0% each time. The “injection site reactions reported” value in [10] (i.v. administration) is “Supravenous erythema and hyperpigmentation”. Besides, the administration reactions observed entry in data set [10] (responded to steroid and antihistamine treatment) is “lip swelling and urticaria”.
Turning to `Nc1ccn([C@@H]2O[C@H](CO)[C@@H](O)C2(F)F)c(=O)n1` [gemcitabine], the median overall survival in data set [12] is listed as 6.6 months.

The values above are taken from patent publication US20160158253A1, “TREATMENT OF PANCREATIC CANCER WITH A COMBINATION OF A HYPOXIA-ACTIVATED PRODRUG AND A TAXANE” (THRESHOLD PHARMACEUTICALS, INC., priority 2013, published 2016).
